Assay results: ChEMBL document CHEMBL3286379, “Design and synthesis of pyrimidine molecules endowed with thiazolidin-4-one as new anticancer agents” (Eur J Med Chem, 2014)

Key:
Format in all cases: functional
[1] = test system: CCRF-CEM; experiment: Growth inhibition of human CCRF-CEM cells assessed as cell growth at 10 uM after 48 hrs by sulforhodamine B assay relative to control; conditions: read-out: Activity
[2] = test system: K562; experiment: Growth inhibition of human K562 cells assessed as cell growth at 10 uM after 48 hrs by sulforhodamine B assay relative to control; conditions: K562, 48 h, read-out: Activity
[3] = test system: SR; experiment: Growth inhibition of human SR cells assessed as cell growth at 10 uM after 48 hrs by sulforhodamine B assay relative to control; conditions: read-out: Activity
[4] = test system: A549; experiment: Growth inhibition of human A549/ATCC cells assessed as cell growth at 10 uM after 48 hrs by sulforhodamine B assay relative to control; conditions: A549, 48 h, read-out: Activity
[5] = test system: NCI-H23; experiment: Growth inhibition of human NCI-H23 cells assessed as cell growth at 10 uM after 48 hrs by sulforhodamine B assay relative to control; conditions: NCI-H23, 48 h, read-out: Activity
[6] = test system: NCI-H322M; experiment: Growth inhibition of human NCI-H322M cells assessed as cell growth at 10 uM after 48 hrs by sulforhodamine B assay relative to control; conditions: read-out: Activity
[7] = test system: COLO 205; experiment: Growth inhibition of human COLO205 cells assessed as cell growth at 10 uM after 48 hrs by sulforhodamine B assay relative to control; conditions: COLO 205, 48 h, read-out: Activity
[8] = Growth inhibition of human HCC2998 cells assessed as cell growth at 10 uM after 48 hrs by sulforhodamine B assay relative to control; conditions: HCC 2998, 48 h, read-out: Activity
[9] = test system: HCT-116; experiment: Growth inhibition of human HCT116 cells assessed as cell growth at 10 uM after 48 hrs by sulforhodamine B assay relative to control; conditions: HCT-116, 48 h, read-out: Activity
[10] = Growth inhibition of human HCT15 cells assessed as cell growth at 10 uM after 48 hrs by sulforhodamine B assay relative to control; conditions: HCT-15, 48 h, read-out: Activity
[11] = Growth inhibition of human SF539 cells assessed as cell growth at 10 uM after 48 hrs by sulforhodamine B assay relative to control; conditions: SF-539, 48 h, read-out: Activity
[12] = test system: SNB-75; experiment: Growth inhibition of human SNB75 cells assessed as cell growth at 10 uM after 48 hrs by sulforhodamine B assay relative to control; conditions: SNB-75, 48 h, read-out: Activity
[13] = test system: U-251; experiment: Growth inhibition of human U251 cells assessed as cell growth at 10 uM after 48 hrs by sulforhodamine B assay relative to control; conditions: U-251, 48 h, read-out: Activity
[14] = Growth inhibition of human LOXIMVI cells assessed as cell growth at 10 uM after 48 hrs by sulforhodamine B assay relative to control; conditions: LOX IMVI, read-out: Activity
[15] = test system: Malme-3M; experiment: Growth inhibition of human MALME-3M cells assessed as cell growth at 10 uM after 48 hrs by sulforhodamine B assay relative to control; conditions: read-out: Activity
[16] = test system: SK-MEL-2; experiment: Growth inhibition of human SK-MEL-2 cells assessed as cell growth at 10 uM after 48 hrs by sulforhodamine B assay relative to control; conditions: SK-MEL-2, 48 h, read-out: Activity
[17] = test system: SK-MEL-28; experiment: Growth inhibition of human SK-MEL-28 cells assessed as cell growth at 10 uM after 48 hrs by sulforhodamine B assay relative to control; conditions: SK-MEL-28, 48 h, read-out: Activity
[18] = test system: SK-MEL-5; experiment: Growth inhibition of human SK-MEL-5 cells assessed as cell growth at 10 uM after 48 hrs by sulforhodamine B assay relative to control; conditions: SK-MEL-5, 48 h, read-out: Activity
[19] = Growth inhibition of human UACC257 cells assessed as cell growth at 10 uM after 48 hrs by sulforhodamine B assay relative to control; conditions: UACC-257, 48 h, read-out: Activity
[20] = Growth inhibition of human UACC62 cells assessed as cell growth at 10 uM after 48 hrs by sulforhodamine B assay relative to control; conditions: UACC-62, 48 h, read-out: Activity
[21] = Growth inhibition of human OVCAR8 cells assessed as cell growth at 10 uM after 48 hrs by sulforhodamine B assay relative to control; conditions: OVCAR-8, 48 h, read-out: Activity
[22] = Growth inhibition of human NCI-ADR-RES cells assessed as cell growth at 10 uM after 48 hrs by sulforhodamine B assay relative to control; conditions: read-out: Activity
[23] = test system: 786-0; experiment: Growth inhibition of human 786-0 cells assessed as cell growth at 10 uM after 48 hrs by sulforhodamine B assay relative to control; conditions: 786-0, 48 h, read-out: Activity
[24] = test system: A498; experiment: Growth inhibition of human A498 cells assessed as cell growth at 10 uM after 48 hrs by sulforhodamine B assay relative to control; conditions: A498, 48 h, read-out: Activity
[25] = test system: ACHN; experiment: Growth inhibition of human ACHN cells assessed as cell growth at 10 uM after 48 hrs by sulforhodamine B assay relative to control; conditions: read-out: Activity
[26] = test system: SN12C; experiment: Growth inhibition of human SN12C cells assessed as cell growth at 10 uM after 48 hrs by sulforhodamine B assay relative to control; conditions: read-out: Activity
[27] = Growth inhibition of human UO31 cells assessed as cell growth at 10 uM after 48 hrs by sulforhodamine B assay relative to control; conditions: UO-31, 48 h, read-out: Activity
[28] = test system: DU-145; experiment: Growth inhibition of human DU145 cells assessed as cell growth at 10 uM after 48 hrs by sulforhodamine B assay relative to control; conditions: DU-145, 48 h, read-out: Activity
[29] = test system: MCF7; experiment: Growth inhibition of human MCF7 cells assessed as cell growth at 10 uM after 48 hrs by sulforhodamine B assay relative to control; conditions: MCF7, 48 h, read-out: Activity
[30] = test system: MDA-MB-231; experiment: Growth inhibition of human MDA-MB-231 cells assessed as cell growth at 10 uM after 48 hrs by sulforhodamine B assay relative to control; conditions: MDA-MB-231, 48 h, read-out: Activity
[31] = Growth inhibition of human Hs 578T cells assessed as cell growth at 10 uM after 48 hrs by sulforhodamine B assay relative to control; conditions: read-out: Activity
[32] = Growth inhibition of human BT549 cells assessed as cell growth at 10 uM after 48 hrs by sulforhodamine B assay relative to control; conditions: BT-549, 48 h, read-out: Activity
[33] = test system: T47D; experiment: Growth inhibition of human T47D cells assessed as cell growth at 10 uM after 48 hrs by sulforhodamine B assay relative to control; conditions: read-out: Activity
[34] = test system: MDA-MB-468; experiment: Growth inhibition of human MDA-MB-468 cells assessed as cell growth at 10 uM after 48 hrs by sulforhodamine B assay relative to control; conditions: MDA-MB-468, 48 h, read-out: Activity
[35] = Growth inhibition of human HOP92 cells assessed as cell growth at 10 uM after 48 hrs by sulforhodamine B assay relative to control; conditions: HOP-92, 48 h, read-out: Activity

SMILES | growth at 10 µM [1] | growth at 10 µM [2] | growth at 10 µM [3] | growth at 10 µM [4] | growth at 10 µM [5] | growth at 10 µM [6] | growth at 10 µM [7] | growth at 10 µM [8] | growth at 10 µM [9] | growth at 10 µM [10] | growth at 10 µM [11] | growth at 10 µM [12] | growth at 10 µM [13] | growth at 10 µM [14] | growth at 10 µM [15] | growth at 10 µM [16] | growth at 10 µM [17] | growth at 10 µM [18] | growth at 10 µM [19] | growth at 10 µM [20] | also measured
O=C1CS/C(=N\c2nc(-c3ccccc3Cl)cc(-c3ccc(Cl)cc3Cl)n2)N1 | 85.9% | 79.5% | 75.1% | 91.2% | 90% | 94.9% | 100% | 101% | 94.5% | 102% | 103% | 76.6% | 105% | 90.4% | 87.3% | 97.9% | 102% | 103% | 107% | 91.2% | growth at 10 µM [21]: 96.1%; growth at 10 µM [22]: 98.1%; growth at 10 µM [23]: 99.7%; growth at 10 µM [24]: 101%; growth at 10 µM [25]: 98.1%; growth at 10 µM [26]: 98.5%; growth at 10 µM [27]: 58%; growth at 10 µM [28]: 105%; growth at 10 µM [29]: 87.2%; growth at 10 µM [30]: 88.8%; growth at 10 µM [31]: 97.7%; growth at 10 µM [32]: 98.4%; growth at 10 µM [33]: 86.5%; growth at 10 µM [34]: 93.5%; growth at 10 µM [35]: 84.6%
O=C1N/C(=N/c2nc(-c3ccccc3Cl)cc(-c3ccc(Cl)cc3Cl)n2)S/C1=C/c1ccc(Cl)cc1 | 75.5% | 37.6% | 32.4% | 88.8% | 76% | 78.1% | 83.2% | 102% | 75.4% | 90% | 97.3% | 97.5% | 89.4% | 74.1% | 91.5% | 88.9% | 104% | 83.6% | 93.2% | 70.2% | growth at 10 µM [21]: 91.6%; growth at 10 µM [22]: 90.1%; growth at 10 µM [23]: 100%; growth at 10 µM [24]: 76.2%; growth at 10 µM [25]: 91.6%; growth at 10 µM [26]: 91.5%; growth at 10 µM [27]: 55.2%; growth at 10 µM [28]: 100%; growth at 10 µM [29]: 50.4%; growth at 10 µM [30]: 63.2%; growth at 10 µM [31]: 91.9%; growth at 10 µM [32]: 92.2%; growth at 10 µM [33]: 60.9%; growth at 10 µM [34]: 34.2%; growth at 10 µM [35]: 55.1%
Nc1nc(-c2ccccc2Cl)cc(-c2ccc(Cl)cc2Cl)n1 | 57.5% | 27.3% | 25.4% | 52.7% | 75.4% | 89.5% | 64.9% | 83.6% | 33% | 90.2% | 72.2% | 30.5% | 65% | 55.4% | 86.6% | 96.2% | 88% | 75.2% | 93% | 63.1% | growth at 10 µM [21]: 71.2%; growth at 10 µM [22]: 79.8%; growth at 10 µM [23]: 90.2%; growth at 10 µM [24]: 53.7%; growth at 10 µM [25]: 86%; growth at 10 µM [26]: 79.6%; growth at 10 µM [27]: 62.5%; growth at 10 µM [28]: 91.4%; growth at 10 µM [29]: 45.7%; growth at 10 µM [30]: 65%; growth at 10 µM [31]: 61.9%; growth at 10 µM [32]: 75.3%; growth at 10 µM [33]: 63.7%; growth at 10 µM [34]: 18.6%; growth at 10 µM [35]: 76.2%
